Consider 24 compounds from PubChem BioAssay AID256 (DTP/NCI, 2004).

Molecules are shown by their SMILES. Values joined by “and” are separate entries in the source; they are usually repeats but may differ in a detail not shown here. Equal values may be shown once. Inconclusive results and toxic doses are left out.

For the assay, the system named is CD2F1 mice, L1210 leukemia ip, survival T/C. Kind of assay: NCI In Vivo Anticancer Drug Screen. Data for tumor model L1210 Leukemia (intraperitoneal) in CD2F1 (CDF1) mice. Particulars: higher = longer survival. The essentials: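 Read-out first: treated-group measurement over vehicle-control measurement, expressed as a ratio. Animals bore a transplanted tumor line and were dosed with compound or vehicle.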

Setting [1] is: endpoint: mean survival time, dose: 100.0 mg/kg/injection, schedule: Q01DX001 (ip), vehicle: saline.
Where [2] appears, read: endpoint: mean survival time, dose: 100.0 mg/kg/injection, schedule: Q04DX002 (ip), vehicle: saline with Tween-80.
Where [3] appears, read: endpoint: mean survival time, dose: 200.0 mg/kg/injection, schedule: Q04DX002 (ip), vehicle: saline with Tween-80.
[4] abbreviates: endpoint: mean survival time, dose: 100.0 mg/kg/injection, schedule: Q04DX003 (ip), vehicle: saline with Tween-80.
Setting [5] is: endpoint: mean survival time, dose: 200.0 mg/kg/injection, schedule: Q04DX003 (ip), vehicle: saline with Tween-80.
The mark [6] stands for this setting: endpoint: mean survival time, dose: 400.0 mg/kg/injection, schedule: Q04DX003 (ip), vehicle: saline with Tween-80.
[7] abbreviates: endpoint: mean survival time, dose: 75.0 mg/kg/injection, schedule: Q01DX001 (ip), vehicle: other.
The mark [8] stands for this setting: endpoint: mean survival time, dose: 150.0 mg/kg/injection, schedule: Q01DX001 (ip), vehicle: other.
Where [9] appears, read: endpoint: mean survival time, dose: 300.0 mg/kg/injection, schedule: Q01DX001 (ip), vehicle: other.
[10] abbreviates: endpoint: mean survival time, dose: 100.0 mg/kg/injection, schedule: Q01DX001 (ip), vehicle: saline with Tween-80.
The mark [11] stands for this setting: endpoint: mean survival time, dose: 200.0 mg/kg/injection, schedule: Q01DX001 (ip), vehicle: saline with Tween-80.
[12] abbreviates: endpoint: mean survival time, dose: 400.0 mg/kg/injection, schedule: Q01DX001 (ip), vehicle: saline with Tween-80.
The mark [13] stands for this setting: endpoint: mean survival time, dose: 50.0 mg/kg/injection, schedule: Q01DX009 (ip), vehicle: saline with Tween-80.
Setting [14] is: endpoint: mean survival time, dose: 100.0 mg/kg/injection, schedule: Q01DX009 (ip), vehicle: saline with Tween-80.
Setting [15] is: endpoint: mean survival time, dose: 200.0 mg/kg/injection, schedule: Q01DX009 (ip), vehicle: saline with Tween-80.
Where [16] appears, read: endpoint: mean survival time, dose: 400.0 mg/kg/injection, schedule: Q01DX009 (ip), vehicle: saline with Tween-80.

Take `O=c1nc(NCc2ccco2)ccn1C1OC(CO)C(O)C1O` (stereo not given): the T/C runs as follows: (endpoint: median survival time, dose: 12.5 mg/kg/injection, schedule: Q01DX005 (ip), vehicle: water) 98 % of control; (endpoint: median survival time, dose: 25.0 mg/kg/injection, schedule: Q01DX005 (ip), vehicle: water) 106 % of control; (endpoint: median survival time, dose: 50.0 mg/kg/injection, schedule: Q01DX005 (ip), vehicle: water) 112 % of control; (endpoint: median survival time, dose: 100.0 mg/kg/injection, schedule: Q01DX005 (ip), vehicle: water) 112 % of control; (endpoint: median survival time, dose: 200.0 mg/kg/injection, schedule: Q01DX005 (ip), vehicle: water) 108 % of control.

On to `OCC(O)C(O)C(O)C(/C=N/Nc1ccccc1)=N\Nc1ccccc1` (stereo not given), for which the T/C is, setting by setting: (endpoint: mean survival time, dose: 75.0 mg/kg/injection, schedule: Q01DX001 (ip), vehicle: saline) 95 % of control; (endpoint: mean survival time, dose: 150.0 mg/kg/injection, schedule: Q01DX001 (ip), vehicle: saline) 100 % of control; (endpoint: mean survival time, dose: 300.0 mg/kg/injection, schedule: Q01DX001 (ip), vehicle: saline) 97 % of control.

Regarding `C=C1C(=O)OC2CC(C)C3C=CC(=O)C3CC12` (stereo not given), the T/C is 106 % of control (endpoint: mean survival time, dose: 0.5 mg/kg/injection, schedule: Q01DX009 (ip), vehicle: Klucel (hydroxypropylcellulose) (HPC)); 102 % of control (endpoint: mean survival time, dose: 1.0 mg/kg/injection, schedule: Q01DX009 (ip), vehicle: Klucel (hydroxypropylcellulose) (HPC)); 105 % of control (endpoint: mean survival time, dose: 18.75 mg/kg/injection, schedule: Q01DX009 (ip), vehicle: Klucel (hydroxypropylcellulose) (HPC)).

As to `O=P(OCCCCCl)(OCCCCCl)C(Cl)Cl`, the T/C is 100 % of control under setting [1]; 100 % of control (endpoint: mean survival time, dose: 200.0 mg/kg/injection, schedule: Q01DX001 (ip), vehicle: saline); 108 % of control (endpoint: mean survival time, dose: 400.0 mg/kg/injection, schedule: Q01DX001 (ip), vehicle: saline).

Take `CC(C)c1ccc2c(c1)CC[C@H]1[C@](C)(CN=C(N)CCl)CCC[C@]21C`: the T/C was 102 % of control under setting [2] and 95 % of control under setting [3].

For `CC(C)CCCC(C)C1CCC2C3CC=C4CC(OCCC(C)C)CCC4(C)C3CCC12C` (stereo not given), the T/C reads like this: under setting [4], 97 % of control; under setting [5], 95 % of control; under setting [6], 88 % of control.

On to `O=C([O-])CC(=O)[O-].[NH-][C@@H]1CCCC[C@H]1[NH-].[Pt+4]`, for which, for the setting “endpoint: mean survival time, dose: 6.25 mg/kg/injection, schedule: Q04DX003 (ip), vehicle: saline with Tween-80”, the T/C was 113 % of control.

On to `CCCCCCCCCCCCC(=O)O.[Pb]`, for which the T/C reads like this: under setting [7], 107 % of control; under setting [8], 104 % of control; under setting [9], 97 % of control.

Regarding `CC(C)(C)NSc1nc2ccccc2s1`, the T/C was 96 % of control under setting [4] and 96 % of control under setting [5].

On to `COC1OC2COC(c3ccccc3)OC2C(OS(C)(=O)=O)C1OS(C)(=O)=O` (stereo not given), for which the T/C under setting [10] is 103 % of control, the T/C under setting [11] is 105 % of control and the T/C under setting [12] is 101 % of control.

Turning to `COc1ccc(C(Br)C(C)Br)cc1` (stereo not given), the T/C under setting [13] was 97 % of control; the T/C under setting [14] is 94 % of control; the T/C under setting [4] is 98 % of control; the T/C under setting [15] is 97 % of control; the T/C under setting [5] was 98 % of control.

Turning to `C/C([O-])=C/[S+](C)(=O)N(C)C` (stereo not given), the T/C reads like this: (endpoint: mean survival time, dose: 25.0 mg/kg/injection, schedule: Q01DX001 (ip), vehicle: saline) 103 % of control; (endpoint: mean survival time, dose: 50.0 mg/kg/injection, schedule: Q01DX001 (ip), vehicle: saline) 109 % of control; under setting [1], 96 % of control.

Consider `COc1cc(C[C@@H]2COC(=O)[C@]2(O)Cc2ccc(O)c(OC)c2)ccc1O`, for which the T/C was 106 % of control (endpoint: mean survival time, dose: 1.0 mg/kg/injection, schedule: Q01DX009 (ip), vehicle: saline + alcohol); 104 % of control (endpoint: mean survival time, dose: 2.0 mg/kg/injection, schedule: Q01DX009 (ip), vehicle: saline + alcohol); 106 % of control (endpoint: mean survival time, dose: 4.0 mg/kg/injection, schedule: Q01DX009 (ip), vehicle: saline + alcohol); 103 % of control (endpoint: mean survival time, dose: 8.0 mg/kg/injection, schedule: Q01DX009 (ip), vehicle: saline + alcohol); 101 % of control (endpoint: mean survival time, dose: 16.0 mg/kg/injection, schedule: Q01DX009 (ip), vehicle: saline + alcohol).

Consider `C=CC(=O)Nc1cccc(OC(=O)NCC)c1`, for which the T/C by setting is: under setting [14], 94 % of control; under setting [15], 92 % of control; under setting [16], 97 % of control.

`Cc1cc(O)c(C(C)C)cc1N=O`: the T/C reads like this: under setting [10], 96 % of control; under setting [14], 94 % of control; under setting [4], 103 % of control; under setting [11], 94 % of control; under setting [15], 88 % of control; under setting [5], 100 % of control. The T/C is 89 % of control under setting [12], 87 % of control under setting [16] and 106 % of control under setting [6].

For `CN1CCSC1=S`, the T/C is 92 % of control under setting [7], 96 % of control under setting [8] and 104 % of control under setting [9].

Consider `CC(C)(C)COC(=S)Oc1ccc(C(C)(C)C)cc1`, for which the T/C was 89 % of control under setting [2]; 104 % of control under setting [3]; 100 % of control (endpoint: mean survival time, dose: 400.0 mg/kg/injection, schedule: Q04DX002 (ip), vehicle: saline with Tween-80).

With `S=c1nccc[nH]1`, under setting [2], the T/C is 105 % of control.

For `CC1=N/C(=C/c2ccccc2)C(=O)O1`, the T/C runs as follows: under setting [14], 97 % of control; under setting [15], 98 % of control; under setting [16], 88 % of control.

In the case of `Cc1ccc(NC(=O)N(CCCl)N=O)c(C)c1`, the T/C (endpoint: mean survival time, dose: 4.4 mg/kg/injection, schedule: Q01DX009 (ip), vehicle: other) was 167 % of control; the T/C (endpoint: mean survival time, dose: 6.6 mg/kg/injection, schedule: Q01DX009 (ip), vehicle: other) was 161 % of control; the T/C (endpoint: mean survival time, dose: 33.0 mg/kg/injection, schedule: Q01DX001 (ip), vehicle: other) was 183 % of control; the T/C (endpoint: mean survival time, dose: 50.0 mg/kg/injection, schedule: Q01DX001 (ip), vehicle: other) was 200 % of control; the T/C under setting [7] is 178 % of control.

`CCC(C)C(C(=O)OCC[N+](C)(CC)CC)c1ccc(C)c(C)c1` (stereo not given): the T/C is 93 % of control (endpoint: mean survival time, dose: 12.5 mg/kg/injection, schedule: Q04DX003 (ip), vehicle: saline); 101 % of control (endpoint: mean survival time, dose: 25.0 mg/kg/injection, schedule: Q04DX003 (ip), vehicle: saline); 97 % of control (endpoint: mean survival time, dose: 50.0 mg/kg/injection, schedule: Q04DX003 (ip), vehicle: saline).

Turning to `CCCCCCCCCCCCCCOc1ccc(Cl)cc1`, the T/C by setting is: under setting [2], 87 % of control; under setting [3], 87 % of control.

`CC(=O)OC1CCC2(C)C(CC=C3C2CCC2(C)C3CCC2C(C)CCCC(C)C)C1` (stereo not given): the T/C runs as follows: under setting [14], 89 % of control; under setting [15], 89 % of control; under setting [16], 91 % of control.

For `COc1cc(O)c2c(O)c3c(c4c2c1[C@]1(C4)C(C)=CCCC1(C)C)[C@H](O)[C@@]1(O)CC(=O)C(C(N)=O)=C(O)[C@@]1(O)C3=O`, the T/C reads like this: (endpoint: mean survival time, dose: 1.56 mg/kg/injection, schedule: Q01DX009 (ip), vehicle: saline with Tween-80) 96 % of control and 101 % of control; (endpoint: mean survival time, dose: 3.13 mg/kg/injection, schedule: Q01DX009 (ip), vehicle: saline with Tween-80) 98 % of control; (endpoint: mean survival time, dose: 6.25 mg/kg/injection, schedule: Q01DX009 (ip), vehicle: saline with Tween-80) 104 % of control; (endpoint: mean survival time, dose: 12.5 mg/kg/injection, schedule: Q01DX009 (ip), vehicle: saline with Tween-80) 114 % of control; (endpoint: mean survival time, dose: 16.5 mg/kg/injection, schedule: Q04DX003 (ip), vehicle: saline with Tween-80) 98 % of control; (endpoint: mean survival time, dose: 25.0 mg/kg/injection, schedule: Q01DX009 (ip), vehicle: saline with Tween-80) 119 % of control. Also, the T/C is 102 % of control (endpoint: mean survival time, dose: 25.0 mg/kg/injection, schedule: Q04DX003 (ip), vehicle: saline with Tween-80); 111 % of control (endpoint: mean survival time, dose: 37.5 mg/kg/injection, schedule: Q04DX003 (ip), vehicle: saline with Tween-80); 90 % of control under setting [13].
